Consider 50 compounds from article PMC8315004, “Discovery of Small-Molecule Inhibitors of SARS-CoV-2 Proteins Using a Computational and Experimental Pipeline” (Frontiers in Molecular Biosciences, 2021).

Where a name gives a salt, the structure may show the parent alone.

This assay has as its target SARS-CoV-2 M^pro (Severe acute respiratory syndrome coronavirus 2, UniProt P0DTD1). Description: biochemical. Details: inhibition: dose or concentration left out as unconfirmed. As to conditions: for inhibition / Normalized Percent FRET inhibition: initial screen, Table S4; for Normalized Percent FRET inhibition: 100 μM of drug.
Setting [1] is: read-out: Normalized Percent FRET inhibition.

`CC1(C)CCC(CN2CCN(c3ccc(C(=O)NS(=O)(=O)c4ccc(NCC5CCOCC5)c([N+](=O)[O-])c4)c(Oc4cnc5[nH]ccc5c4)c3)CC2)=C(c2ccc(Cl)cc2)C1` [ABT199]: the inhibition (commonly the drop in the measured response relative to a control, in per cent) under setting [1] came to 6.27%.

`C[C@H]1O[C@H](O[C@H]2[C@H](O)[C@@H](O)[C@@H](O[C@H]3[C@H](O)[C@@H](O)C(O)O[C@@H]3CO)O[C@@H]2CO)[C@H](O)[C@@H](O)[C@@H]1N[C@H]1C=C(CO)[C@@H](O)[C@H](O)[C@H]1O` (some centres unmarked) [Acarbose]: the inhibition under setting [1] is -3.44%. Still for that read-out and setting: the result for `C[C@H]1CN(C[C@H](Cc2ccccc2)C(=O)NCC(=O)O)CC[C@@]1(C)c1cccc(O)c1` [Alvimopan] reads -3.26%. The same measure, in the same setting: the result for `C[C@@H](O[C@H]1OCCN(Cc2n[nH]c(=O)[nH]2)[C@H]1c1ccc(F)cc1)c1cc(C(F)(F)F)cc(C(F)(F)F)c1` [Aprepitant] reads 3.37%. Still for that read-out and setting: the same measure for `CC1CNc2c(cccc2S(=O)(=O)N[C@@H](CCCNC(=N)N)C(=O)N2CC[C@@H](C)C[C@@H]2C(=O)O)C1` (some centres unmarked) [Argatroban]: 13.5%. For `COC(=O)N[C@H](C(=O)N[C@@H](Cc1ccccc1)[C@@H](O)CN(Cc1ccc(-c2ccccn2)cc1)NC(=O)[C@@H](NC(=O)OC)C(C)(C)C)C(C)(C)C` [Atazanavir], the inhibition under setting [1] is -1.97%. Take `CC1=C(C(=O)OC(C)C)C(c2cccc([N+](=O)[O-])c2)C(C(=O)OC2CN(C(c3ccccc3)c3ccccc3)C2)=C(N)N1` (centres unmarked) [Azelnidipine]: the inhibition under setting [1] is 8.17%.

`CCOc1nc2cccc(C(=O)OCc3oc(=O)oc3C)c2n1Cc1ccc(-c2ccccc2-c2noc(=O)[nH]2)cc1` [Azilsartan Medoxomil]: the inhibition under setting [1] was -1.99%. On the same count and under the same terms, the result for `CC1(C)S[C@@H]2[C@H](NC(=O)[C@H](NC(=O)N3CCNC3=O)c3ccccc3)C(=O)N2[C@H]1C(=O)O` [Azlocillin sodium] reads -0.915%; that for `NS(=O)(=O)c1cc2c(cc1C(F)(F)F)NC(Cc1ccccc1)NS2(=O)=O` (centres unmarked) [Bendroflumethiazide], 11.6%. On the same count and under the same terms, the result for `COc1cc(N2CCC(N3CCN(C)CC3)CC2)ccc1Nc1ncc(Cl)c(Nc2ccccc2P(C)(C)=O)n1` [Brigatinib] reads 5.97%. On to `COc1cc2nccc(Oc3ccc(NC(=O)C4(C(=O)Nc5ccc(F)cc5)CC4)cc3)c2cc1OC` [Cabozantinib Malate], for which the inhibition under setting [1] came out at 0.386%.

Consider `Nc1nc(=O)c2c([nH]1)NC[C@H](CNc1ccc(C(=O)N[C@@H](CCC(=O)[O-])C(=O)[O-])cc1)N2C=O.[Ca+2]` [Calcium Levofolinate], for which the “Normalized Percent FRET inhibition” value was 13%. As for `CN1c2c(nc(N)[nH]c2=O)NCC1CNc1ccc(C(=O)N[C@@H](CCC(=O)O)C(=O)O)cc1` (some centres unmarked) [Calcium N5-methyltetrahydrofolate], under setting [1], the inhibition at 100 µM is 3.74%.

`CCOc1nc2cccc(C(=O)O)c2n1Cc1ccc(-c2ccccc2-c2nnn[nH]2)cc1` [Candesartan]: the “effect in the FRET-based activity assay (in words)” value is reported as “no effect”. Consider `CO/N=C(\C(=O)N[C@@H]1C(=O)N2C(C(=O)O)=C(CSc3nnnn3C)CS[C@H]12)c1csc(N)n1.CO/N=C(\C(=O)N[C@@H]1C(=O)N2C(C(=O)O)=C(CSc3nnnn3C)CS[C@H]12)c1csc(N)n1.Cl` [Cefmenoxime hydrochloride], for which the “Normalized Percent FRET inhibition” value was -1.304%. Regarding `CCN1CCN(C(=O)N[C@@H](C(=O)N[C@@H]2C(=O)N3C(C(=O)O)=C(CSc4nnnn4C)CS[C@H]23)c2ccc(O)cc2)C(=O)C1=O` [Cefoperazone sodium], under “100 µM”, the “Normalized Percent FRET inhibition” value is 14.81%. Same read-out and setting: the result for `CCN1CCN(C(=O)N[C@@H](C(=O)N[C@@H]2C(=O)N3C(C(=O)O)=C(CSc4nnnn4C)CS[C@H]23)c2ccc(O)cc2)C(=O)C1=O` [Cefoperazone] reads -0.3067%.

As to `CO[C@@]1(NC(=O)C2SC(=C(C(N)=O)C(=O)O)S2)C(=O)N2C(C(=O)O)=C(CSc3nnnn3C)CS[C@@H]21` (some centres unmarked) [Cefotetan], the inhibition under setting [1] came to 2.14%.

Take `Cc1cc(O)c(C(=O)N[C@@H](C(=O)N[C@@H]2C(=O)N3C(C(=O)O)=C(CSc4nnnn4C)CS[C@H]23)c2ccc(O)cc2)cn1` [Cefpiramide acid]: the “Normalized Percent FRET inhibition” value amounted to 7.373%. For the compound `CC(C)C(=O)OCC(=O)[C@@]12O[C@H](C3CCCCC3)O[C@@H]1C[C@H]1[C@@H]3CCC4=CC(=O)C=C[C@]4(C)[C@H]3[C@@H](O)C[C@@]12C` [Ciclesonide], under setting [1], the inhibition was -0.393%. As for `CC(C)CN(C[C@@H](O)[C@H](Cc1ccccc1)NC(=O)O[C@H]1CO[C@H]2OCC[C@H]21)S(=O)(=O)c1ccc(N)cc1.CCO` [Darunavir Ethanolate], the “Normalized Percent FRET inhibition” value was -1.838%. Take `C[C@H]1O[C@@H](O[C@H]2[C@@H](O)C[C@H](O[C@H]3[C@@H](O)C[C@H](O[C@H]4CC[C@@]5(C)[C@H](CC[C@@H]6[C@@H]5CC[C@]5(C)[C@@H](C7=CC(=O)OC7)CC[C@]65O)C4)O[C@@H]3C)O[C@@H]2C)C[C@H](O)[C@@H]1O` [Digitoxin]: the inhibition under setting [1] amounted to 0.197%. In the case of `COc1ccc(-c2cc(=O)c3c(O)cc(O[C@@H]4O[C@H](CO[C@@H]5O[C@@H](C)[C@H](O)[C@@H](O)[C@H]5O)[C@@H](O)[C@H](O)[C@H]4O)cc3o2)cc1O` [Diosmin], the inhibition under setting [1] is -0.378%. Same read-out and setting: the result for `COc1cc2nc(N3CCN(C(=O)C4COc5ccccc5O4)CC3)nc(N)c2cc1OC` (centres unmarked) [Doxazosin mesylate] reads 0.919%; that for `C[C@]12C=CC(=O)N[C@@H]1CC[C@@H]1[C@@H]2CC[C@]2(C)[C@@H](C(=O)Nc3cc(C(F)(F)F)ccc3C(F)(F)F)CC[C@@H]12` [Dutasteride], -2.38%; that for `CC1=C(C(=O)OCCN(Cc2ccccc2)c2ccccc2)C(c2cccc([N+](=O)[O-])c2)C(P2(=O)OCC(C)(C)CO2)=C(C)N1` (centres unmarked) [Efonidipine], -1.16%. Still for that read-out and setting: the result for `CC1=NN(c2ccc(C)c(C)c2)C(=O)/C1=N\Nc1cccc(-c2cccc(C(=O)O)c2)c1O` [Eltrombopag Olamine] reads 23.7%; that for `CC1(C)[C@@H](O)CC[C@]2(C)[C@H]3C(=O)C=C4[C@@H]5C[C@@](C)(C(=O)O)CC[C@]5(C)CC[C@@]4(C)[C@]3(C)CC[C@@H]12` [Enoxolone], 4.01%. Same read-out and setting: the same measure for `C#C[C@]1(O)CC[C@H]2[C@@H]3CCc4cc(O)ccc4[C@H]3CC[C@@]21C` [Ethynyl estradiol]: -3.17%. Regarding `Cc1cc(C#N)cc(C)c1Oc1nc(Nc2ccc(C#N)cc2)nc(N)c1Br` [Etravirine], under setting [1], the inhibition was -0.895%. The same measure, in the same setting: the same measure for `O=C1[C@H](CC[C@H](O)c2ccc(F)cc2)[C@@H](c2ccc(O)cc2)N1c1ccc(F)cc1` [Ezetimibe]: -1.34%. Regarding `CC1(C)O[C@@H]2C[C@H]3[C@@H]4C[C@H](F)C5=CC(=O)C=C[C@]5(C)[C@@]4(F)[C@@H](O)C[C@]3(C)[C@]2(C(=O)CO)O1` [Fluocinolone acetonide], under setting [1], the inhibition is 0.0249%.

Regarding `CCC(=O)O[C@@H](O[P@](=O)(CCCCc1ccccc1)CC(=O)N1C[C@H](C2CCCCC2)C[C@H]1C(=O)[O-])C(C)C.[Na+]` [Fosinopril sodium], the “Normalized Percent FRET inhibition” value worked out at 3.315%. On to `CC(C)=CCC[C@](C)(O[C@@H]1O[C@H](CO)[C@@H](O)[C@H](O)[C@H]1O)[C@H]1CC[C@]2(C)[C@@H]1[C@H](O)C[C@@H]1[C@@]3(C)CC[C@H](O)C(C)(C)[C@@H]3[C@@H](O[C@@H]3O[C@H](CO)[C@@H](O)[C@H](O)[C@H]3O)C[C@]12C` [Ginsenoside Rg1], for which the inhibition under setting [1] amounted to 4.19%. The same measure, in the same setting: the result for `OCCOCCN1CCN(C(c2ccccc2)c2ccc(Cl)cc2)CC1` (centres unmarked) [Hydroxyzine Pamoate] reads 12.9%. Regarding `C=CC(=O)N1CCC[C@@H](n2nc(-c3ccc(Oc4ccccc4)cc3)c3c(N)ncnc32)C1` [Ibrutinib], the inhibition under setting [1] is -1.91%.

On to `CCc1c2c(nc3ccc(OC(=O)N4CCC(N5CCCCC5)CC4)cc13)-c1cc3c(c(=O)n1C2)COC(=O)[C@]3(O)CC.Cl.O.O.O` [Irinotecan hydrochloride trihydrate], for which the “Normalized Percent FRET inhibition” value is listed as -2.22%.

As to `C[C@@H](c1nc(-c2ccc(C#N)cc2)cs1)[C@](O)(Cn1cncn1)c1cc(F)ccc1F` [Isavuconazole], under setting [1], the inhibition was -0.886%. For the compound `CS(=O)(=O)CCNCc1ccc(-c2ccc3ncnc(Nc4ccc(OCc5cccc(F)c5)c(Cl)c4)c3c2)o1` [Lapatinib Ditosylate], under setting [1], the inhibition is -1.57%. The same measure, in the same setting: the result for `CC#CCn1c(N2CCC[C@@H](N)C2)nc2c1c(=O)n(Cc1nc(C)c3ccccc3n1)c(=O)n2C` [Linagliptin] reads 8.28%. Consider `COc1ccc(CN2CCN(C(c3ccc(F)cc3)c3ccc(F)cc3)CC2)c(OC)c1OC.Cl.Cl` [Lomerizine hydrochloride], for which the “Normalized Percent FRET inhibition” value is listed as -0.2765%. Take `Cc1cccc(C)c1OCC(=O)N[C@@H](Cc1ccccc1)[C@@H](O)C[C@H](Cc1ccccc1)NC(=O)[C@H](C(C)C)N1CCCNC1=O` [Lopinavir]: the inhibition under setting [1] turned out to be 18.2%.

For the compound `OC[C@H]1O[C@H](O[C@H]2[C@H](O)[C@@H](O)[C@@H](O[C@H]3[C@H](O)[C@@H](O)[C@@H](O[C@H]4[C@H](O)[C@@H](O)C(O)O[C@@H]4CO)O[C@@H]3CO)O[C@@H]2CO)[C@H](O)[C@@H](O)[C@@H]1O` (some centres unmarked) [MALTOTETRAOSE], the “Normalized Percent FRET inhibition” value was -0.9055%. With `C#C[C@]1(O)CC[C@H]2[C@@H]3CCc4cc(OC)ccc4[C@H]3CC[C@@]21C` [Mestranol], the inhibition under setting [1] is -1.1%.

In the case of `CN(c1nccc(=O)[nH]1)C1CCN(c2nc3ccccc3n2Cc2ccc(F)cc2)CC1` [Mizolastine], under setting [1], the inhibition is -0.317%. The same measure, in the same setting: the same measure for `Cc1c(O)cccc1C(=O)N[C@@H](CSc1ccccc1)[C@H](O)CN1C[C@H]2CCCC[C@H]2C[C@H]1C(=O)NC(C)(C)C` [Nelfinavir Mesylate]: 30.8%. The same measure, in the same setting: the same measure for `CO[C@@H]1[C@@H](OC(N)=O)[C@@H](O)[C@H](Oc2ccc3c(O)c(NC(=O)c4ccc(O)c(CC=C(C)C)c4)c(=O)oc3c2C)OC1(C)C` [Novobiocin Sodium]: -0.228%. With `CCCc1nc(C(C)(C)O)c(C(=O)OCc2oc(=O)oc2C)n1Cc1ccc(-c2ccccc2-c2nnn[nH]2)cc1` [Olmesartan Medoxomil], under setting [1], the inhibition came out at 2.83%. On the same count and under the same terms, the same measure for `C=CC(=O)Nc1cccc(Oc2nc(Nc3ccc(N4CCN(C)CC4)cc3)nc3ccsc23)c1` [Olmutinib]: -0.795%.
